Results taken from ChEMBL document CHEMBL6114956, “Design, synthesis, and evaluation of the pharmacological activity of novel NMDA receptor antagonists based on the germacrone scaffold” (2025).
Activity calls are given as the source filed them. No cut-off for these calls is given here.

Experiments:
[1] = test system: PC-12; experiment: Neuroprotective activity against NMDA-induced cell injury in rat PC12 cells at 5 uM incubated for 12 hrs by MTT assay relative to control; format: functional
[2] = test system: PC-12; experiment: Neuroprotective activity against NMDA-induced cell injury in rat PC12 cells at 0.5 uM incubated for 12 hrs by MTT assay relative to control; format: functional
[3] = biological target: Glutamate NMDA receptor (Rattus norvegicus) (UniProt P35439+Q00959+Q00960+Q00961+Q62645+Q8VHN2+Q9R1M7); experiment: Antagonist activity at NMDAR in rat PC12 cells assessed as inhibition of NMDA-induced Ca2+ influx at 0.05 uM preincubated for 6 hrs followed by NMDA addition measured for 1 to 3 mins by Fluo-4 AM staining based analysis; format: cell-based; conditions: filed as antagonist, time 361-363 min
[4] = test system: PC-12; experiment: Neuroprotective activity against NMDA-induced cell injury in rat PC12 cells at 0.05 uM incubated for 12 hrs by MTT assay relative to control; format: functional

Structure (SMILES)	Activity [1] [%]	Activity [2] [%]	Activity [3]	Activity [4] [%]
CC(C)=C1C/C=C(/C)CC/C=C(\C)CC1=O	-4.79	2.94	Active	14.66
CC(C)=C1C/C=C(/C)CC/C=C(\C)CC1OC(=O)[C@H](C)NC(=O)c1ccc(F)cc1 (stereo not given in full)	16.47	12.7	–	15.35
CC(C)=C1C/C=C(/C)CC/C=C(\C)CC1OC(=O)[C@H](C)NC(=O)c1ccc(Cl)cc1 (stereo not given in full)	11.25	15.27	–	14.06
CC(C)=C1C/C=C(/C)CC/C=C(\C)CC1OC(=O)[C@@H]1CCC2=Nc3ccc(Cl)cc3CN21 (stereo not given in full)	25.35	28.87	–	28.73
CC(C)=C1C/C=C(/C)CC/C=C(\C)CC1OC(=O)[C@@H]1CCC2=Nc3ccccc3CN21 (stereo not given in full)	24.42	26.17	Active; Compound Activity Was Superior To Ifenprodil	29.63
CC(C)=C1C/C=C(/C)CC/C=C(\C)CC1OC(=O)[C@@H](C)NC(=O)c1ccc(F)cc1 (stereo not given in full)	12.32	9.33	–	13.93
CC(C)=C1C/C=C(/C)CC/C=C(\C)CC1OC(=O)[C@@H](C)NC(=O)c1ccc(Cl)cc1 (stereo not given in full)	5.32	16.58	–	15.03
CC(C)=C1C/C=C(/C)CC/C=C(\C)CC1OC(=O)[C@@H](C)NC(=O)c1ccc(O)cc1 (stereo not given in full)	11.03	15.08	–	15.74
CC(C)=C1C/C=C(/C)CC/C=C(\C)CC1OC(=O)[C@@H]1CCC2=Nc3ccc(Br)cc3CN21 (stereo not given in full)	29.37	28.02	–	23.62
CC(C(O)c1ccc(O)cc1)N1CCC(Cc2ccccc2)CC1 (stereo not given) [IFENPRODIL]	31.16	22.57	–	18.31
CC(C)=C1C/C=C(/C)CC/C=C(\C)CC1OC(=O)[C@H](C)NC(=O)c1ccc(O)cc1 (stereo not given in full)	-2.01	10.31	–	12.86
